From US5688936A, “Vesicle membrane transport proteins” (priority 1993, dated 1997)
“Also recorded” adds a separate entry of the source. Read-outs that look alike come from different tables or passages of the source.

Tests used:
[1] = target: T1, chromaffin granule amine transport protein (Rattus norvegicus, UniProt Q01818); test: cell-based; format: cell-based
T1 sequence (Q01818 1-521): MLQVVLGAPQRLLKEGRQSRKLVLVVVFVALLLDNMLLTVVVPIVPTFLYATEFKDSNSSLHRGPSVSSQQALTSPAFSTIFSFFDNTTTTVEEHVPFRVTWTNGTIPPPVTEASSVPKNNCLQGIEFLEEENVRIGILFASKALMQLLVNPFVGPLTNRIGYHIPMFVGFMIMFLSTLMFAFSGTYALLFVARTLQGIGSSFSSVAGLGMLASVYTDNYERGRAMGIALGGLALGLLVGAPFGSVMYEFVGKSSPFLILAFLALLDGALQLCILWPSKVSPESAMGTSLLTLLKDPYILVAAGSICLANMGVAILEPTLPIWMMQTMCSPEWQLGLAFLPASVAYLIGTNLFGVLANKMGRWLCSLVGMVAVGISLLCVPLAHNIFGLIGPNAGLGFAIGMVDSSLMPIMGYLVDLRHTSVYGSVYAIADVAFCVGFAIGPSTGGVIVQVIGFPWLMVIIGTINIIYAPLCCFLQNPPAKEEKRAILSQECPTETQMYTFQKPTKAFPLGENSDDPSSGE
Method: Uptake and cellular compartmentalization of loaded dopamine were performed by growing cells on poly-lysine-coated glass coverslips. […] The cells were then washed three times in 0.1M sodium phosphate, pH 7.4, and incubated at 4° C. in 2% glyoxylic acid/0.5 mg% MgCl2, pH 4.9-5.0 for three minutes as described by de la Torre, J. Neurosci. Meth. 3:1-5 (1980). Briefly, excess solution is wiped off the bottom and edges of the slide using absorbent paper, taking care not to touch the section. The coverslips were then drained thoroughly, dried in air at 45° C. heated to 80° C. for five minutes, inverted over mineral oil on glass slides and examined under fluorescence using the appropriate filters as described by Knigge et al., Brain Res. 120:393-405 (1977). Briefly, the preparations were infiltrated with warm immersion oil and examined in a Leitz MPV2 microspectrofluorometer equipped with Schoffel excitation and emission grating monochromators, photomultipliers, and ratio computing circuitry. Cells were scanned with either monochromatic light (370 nm) or narrow band excitation (S405, BG3) light for the purpose of identifying fluorescence within cells. Ploem illumination was used in combination with a X 63 or X 100 oil immersion objective.
Dopamine-loaded fluorescence was carried out as described in Example 1. […] Glyoxylic-acid-induced fluorescence was used to determine the intracellular distribution as described above in Example 1. The procedures were the same as described in Example 1 however a pure cDNA clone encoding the vesicle membrane transport protein, selected in the presence of MPP^+, obtained as described herein, was used rather than the primary transformant. […]
The effects of various pharmacologic agents were tested to determine whether the properties of the protein encoded by the mpp^res cDNA corresponded with those expected for the chromaffin granule amine transport protein. […] The cells were pre-incubated in Krebs-Ringer buffer containing 1 μM pargyline and the dose of the drug indicated for 15 minutes. 25 nM [^3 H]-dopamine was then added in the same buffer and after incubation at 37° C. for one hour, the cells were washed in cold Krebs-Ringer buffer, lysed and counted in Ecolite (ICN) as described by Greene and Rein, Brain Res. 129:247-263 (1978). Values were determined from three separate wells and the mean was expressed as percent of control uptake±standard deviation. […] The dose required to inhibit maximal uptake by 50%, Ki, was estimated from the fluorescence data using a range of concentrations for each agent.

[2] = test system: MPP^+ -resistant CHO cells; test: MTT cytotoxicity assay in MPP+-resistant transfected CHO cells; format: cell-based, Chinese hamster; conditions: 1 μM reserpine, MPP+-resistant CHO cells
Method: Differential susceptibility to the respiratory complex I inhibitors MPP^+ and rotenone was shown by measuring toxicity by measuring general cell dehydrogenase activity with reduction of a tetrazolium dye (MTT) in a spectrophotometric plate assay as described by Hansen et al., J. Immunol. Methods 119:203-210 (1989). Briefly, a stock solution of MTT (3,(4,5-dimethylthiazol-2-yl)2,5-diphenyltetrazolium bromide) was dissolved at a concentration of 5 mg/ml in sterile phosphate buffered saline at room temperature. To each well was added 25 μl of the stock solution. After two hours of incubation at 37° C., 100 μl of extraction buffer (20% w/v of SDS in a solution of 50% each dimethylformamide and demineralized water with the pH adjusted to 4.7 with acetic acid and HCl). After an overnight incubation at 37° C., the optical densities at 570 nm were measured using a multiscanner, employing the extraction buffer as the blank. This assay was carried out in triplicate on 96-well plates (NUNC, Denmark). MPP^+ and rotenone at the concentrations indicated in FIG. 6a and 6b, respectively, was added to wild-type and MPP^+ -resistant CHO cells at approximately 50% confluence, and toxicity was assayed after 2-3 days by measuring general cell dehydrogenase activity with the reduction of the tetrazolium dye MTT (3,(4,5-dimethylthiazol-2-yl)2,5-diphenyl-tetrazolium bromide). After addition of the dye at a final concentration of 1 mg/ml, the cells were incubated for two hours at 37° C. and the formazan product was solubilized in 10% sodium dodecyl sulfate (SDS). The plates were maintained at 37° C. for an additional twenty hours and the optical density was determined in an ELISA plate reader at a test wavelength of 570 nm, a reference wavelength of 630 nm and a calibration setting of 1.99. All determinations were performed in triplicate and expressed as the mean, with the error bars representing standard deviation (FIG. 6a and 6b).
To determine whether an alteration in the process of respiration was responsible for the resistance to MPP^+, the effects of other known respiratory inhibitors were examined. […] Thus, if the resistance were due to a change in the site of action, the transfected cells should also show resistance to rotenone. […] However, rotenone is considered to have its selected effect on respiration at relatively low doses, and an additional, less specific effect at higher doses.
Therefore, the toxicity of MPP^+ to transfected cells in the presence of 1 μM reserpine was examined.

PC12 cells = test: cells; conditions: Rattus norvegicus, PC-12, 1 h, read-out: [^3 H]-Dopamine Uptake (PC12)
Method: The effects of various pharmacologic agents were tested to determine whether the properties of the protein encoded by the mpp^res cDNA corresponded with those expected for the chromaffin granule amine transport protein. […] The cells were pre-incubated in Krebs-Ringer buffer containing 1 μM pargyline and the dose of the drug indicated for 15 minutes. […] Values were determined from three separate wells and the mean was expressed as percent of control uptake±standard deviation.

[3] = test system: vesicular amine transport protein; conditions: cited from earlier work

COC(=O)[C@H]1[C@H]2C[C@@H]3c4[nH]c5cc(OC)ccc5c4CCN3C[C@H]2C[C@@H](OC(=O)c2cc(OC)c(OC)c(OC)c2)[C@@H]1OC [reserpine]
inhibition of vesicular dopamine uptake in the fluorescence assay ([1]; 50 nM): inhibit vesicular dopamine uptake completely | perinuclear and particulate cytoplasmic dopamine staining of MPP+-resistant CHO cells ([1]; 1 μM): inhibited | Dopamine Fluorescence (mpp^res CHO) ([1]; agent 1 μM, untreated control ++++, 12 hour dopamine loading): 0 | Ki ([1]; dose required to inhibit maximal uptake by 50%, estimated from fluorescence data, read-out: Ki (est)): 25 nM | pattern of catecholamine accumulation in the MPP+-resistant transfectant ([1]; reserpine concentration not stated): reversion to the wild-type pattern of catecholamine accumulation; also recorded: reversed | reversal of MPP+ resistance [2]: Dramatic reversion to wild-type CHO sensitivity | activity at 1 µM (PC12 cells): 23 ± 2% | inhibition of vesicular amine transport [3]: inhibits | inhibition of vesicular amine transport ([3]; listed as Reserpine): inhibit this transport activity
